# Where no end group is shown, it is not given here.
# Assays:
# [1] = system: human Müller cells; type: cell-based
# Description: (§1) Peptide consisted of the TRAF2,3 binding site of CD40 that was made cell permeable by linking them to the TAT47-57 cell penetrating peptide. Peptides were synthesized using D-amino acids following reverse amino acid sequence (ri format). The sequences for the CD40-TRAF2,3 blocking peptide was —NH2-rrrqrrkkrgy ghlteqvhaatn-OH (SEQ ID NO: 49). The TAT47-57 sequence is underlined. The peptide contains a proline (p) to histidine (h) substitution (shown in italics) that enhances affinity to TRAF2. Control (scrambled) peptide consisted of NH2-rrrqrrkkrgy ntqalahtgevh-OH (SEQ ID NO: 50). The blocking peptide was also synthesized with Alexa Fluor 488 conjugated via maleimide coupling to an additional Cys in the N terminus. Peptides were manufactured by Biopeptide Co. (San Diego, CA) and were low in endotoxin and >98% pure by HPLC. Peptides were used at 1 μM in vitro experiments and 1 μg for in vivo studies unless otherwise stated. Peptides were not toxic to human Müller and retinal endothelial cells as assessed by alamarBlue cell viability assay (Invitrogen Corporation).
# (§2) Primary human retinal endothelial cells were obtained as described (9) and cultured in complete medium supplemented with endothelial cell growth supplement from bovine pituitary (15 μg/ml; Sigma Chemical, St Louis, MO) and insulin/transferrin/selenium (Sigma Chemical). Cell identity was confirmed by incorporation of acetylated low-density lipoprotein (>90%). Endothelial cells were used between passages 3 to 6. The human Müller cell line MIO M1 (gift from Dr. Gloria Limb; University College London, UK; >95% vimentin^+, CRALBP^+ and GFAP^−) was also used. Endothelial cells were incubated with multimeric human CD154 to induce CD40 stimulation (obtained from Dr. Richard Kornbluth, Multimeric Biotherapeutics Inc., La Jolla, CA) or with a non-functional CD154 mutant (T147N) as control.
# (§3) Peptides were tested as described using the mouse endothelial cells mHEVc that expresses a chimera of the extracellular domain of human CD40 and intracytoplasmic domain of mouse CD40 (hmCD40) with either a mutation that prevents recruitment of TRAF2,3 (hmCD40 ΔT2,3) or TRAF6 (hmCD40 ΔT6). These cells were transfected with pGL4.32luc2P/NF-κB-RE/Hygro vector (Promega Corporation, Madison, WI) encoding an NF-κB response element that drives the luciferase reporter gene luc2P (Photinus pyralis). Cells were pre-incubated with peptides for 3 hr. followed by stimulation with human CD154. Luciferase activity was assessed using a Steady-Glo luciferase assay system (Promega Corporation) and a luminometer. The effects of peptides on cell viability were examined using alamarBlue cell viability assay.
# [2] = system: human retinal endothelial cells; type: cell-based
# Description: as §1, §2, §3
# [3] = system: retinas subjected to I/R; experiment: Model of retinal ischemia/reperfusion (I/R), intravitreal peptide; type: in vivo, B6 mice
# Experimental: FIGS. 20(A-C) illustrate images and graphs showing ri CD40-TRAF2,3 blocking peptide protects against loss of ganglion cells and leukocyte infiltration in retinas subjected to I/R. One eye from each B6 and CD40^−/− mouse was subjected to I/R. Contralateral non-ischemic eye was used as control. Eyes subjected to I/R in B6 mice were treated intravitreously with or without ri control peptide, ri CD40-TRAF2,3 blocking peptide (both 1 μg) 30 min prior to increase in IOP. Eyes were collected 2 d after I/R. A marked decrease in the number of ganglion cells is observed in ischemic eyes from B6 treated with ri control peptide or vehicle (original magnification ×400). […] Arrowhead plus asterix identifies a PMN magnified in the inset (original magnification ×600). Scale bar, 50 μm. Number of ganglion cells per mm. Number of infiltrating leukocytes in the inner retina and vitreous per section. GCL=Ganglion cell layer; IPL=Inner plexiform layer; INL=Inner nuclear layer. OPL=Outer plexiform layer; ONL=Outer nuclear layer. Data shown represent Mean±SEM (9 mice per group). *P<0.05; **P<0.01; […].
# FIG. 21 illustrates graphs showing ri CD40-TRAF2,3 blocking peptide impairs upregulation of NOS2 and COX-2 in retinas subjected to I/R. One eye of each mouse was treated as above and subjected to I/R. Eyes were collected after 2 d. mRNA levels of NOS2 and COX-2 were assessed by quantitative real time PCR. One non-ischemic eye from a B6 mouse was given an arbitrary value of 1 and data are expressed as fold-increase compared to this animal. Data shown represent Mean±SEM (7-9 mice per group). ***P<0.001.
# FIGS. 22(A-B) illustrate graphs and images showing ri CD40-TRAF2,3 blocking peptide impairs upregulation of ICAM-1 and KC/CXCL1 in retinal endothelial cells from retinas subjected to I/R. One eye of each mouse was subjected to I/R. Eyes were collected after 2 d. mRNA levels of ICAM-1 and KC/CXCL1 were assessed by quantitative real time PCR. One non-ischemic eye from a B6 mouse was given an arbitrary value of 1 and data are expressed as fold-increase compared to this animal. Data shown represent Mean±SEM (7-9 mice per group). ***P<0.001. Retinal sections were incubated with Tomato Lectin (labels endothelial cells) plus either anti-ICAM-1 or anti-KC/CXCL1 Ab. Original magnification ×600. GCL=Ganglion cell layer; IPL=Inner plexiform layer; INL=Inner nuclear layer. Scale bar, 10 μm. 6 mice/group.
# FIG. 23 illustrates images showing ri CD40-TRAF2,3 blocking peptide impairs NOS2 and KC/CXCL1 upregulation in Müller cells from retinas subjected to I/R. Eyes from B6 mice were treated with control peptide or CD40-TRAF2,3 blocking peptide, subjected to I/R and collected after 2 d. Retinal sections were incubated with anti-Vimentin Ab (labels Müller cells) plus either anti-NOS2 or anti-KC/CXCL1 Ab. Protein expression at the level of Müller cells stalks. […]. Original magnification ×600. Scale bar, 10 μm. 6 mice/group.
# FIGS. 24(A-D) illustrate images and graphs showing ri CD40-TRAF2,3 blocking peptide protects against loss of ganglion neurons and inflammation when administered after retinal I/R. One eye from each B6 mouse was subjected to I/R. Non-ischemic eyes were used as controls. Eyes that were subjected to I/R received either ri control peptide or ri CD40-TRAF2,3 blocking peptide 90 min after increase in IOP. Eyes were collected 2 d after I/R. Administration of the blocking peptide protects against ganglion cell loss and infiltration by leukocytes (arrowhead). Original magnification ×400. Scale bar, 50 μm. Number of ganglion cells per mm. Number of leukocytes in the inner retina and vitreous per section. mRNA levels of ICAM-1, KC/CXCL1, NOS2 and COX-2 were assessed by quantitative real time PCR as above. Data shown represent Mean±SEM (7-9 mice per group). **P<0.01; ***P<0.001. GCL=Ganglion cell layer; IPL=Inner plexiform layer; INL=Inner nuclear layer. […]
# [4] = system: HAEC; experiment: Viability of HAEC incubated with cell-permeable peptides; type: cell-based, human; conditions: first generation cell-permeable peptides
# Description: We used peptides that consisted of the amino acid sequence of the TRAF2,3 or the TRAF6 binding sites of CD40 fused a protein transduction domain derived from the Kaposi fibroblast growth factor to make the peptides cell-permeable, (SEQ ID NO: 1 or SEQ ID NO: 2, respectively). […] Thus, the results obtained with the blocking peptides were similar to those obtained with CD40 mutants.
# [5] = system: Human aortic endothelial cells (HAEC); experiment: CD154-induced VCAM-1 upregulation in HAEC transduced with wild-type CD40 (FACS); type: cell-based; conditions: second generation peptides (Tat MTD), 100 nM, p<0.02
# Experimental: FIGS. 2A-D are a series of graphs showing the induction of VCAM-1 (FIG. 2A), ICAM-1 (FIG. 2B), MCP-1 (FIG. 2C), and tissue factor (FIG. 2D) expression by TRAFs. Human aortic endothelial cells (HAEC) transduced with empty EGFP-encoding retroviral vector (MIEG3) or retroviral vector that encoded either wild type CD40 (wt CD40), CD40 with a mutation that prevents recruitment of TRAF2 and 3 (ΔT2, 3), recruitment of TRAF6 (ΔT6), or recruitment of TRAF2, 3, and 6 (ΔT2, 3, and 6) were incubated with or without CD154. VCAM-1, ICAM-1, and tissue factor were assessed by FACS on transduced (EGFP+) cells. cMFI=corrected Mean Fluorescence Intensity. MCP-1 was measured by ELISA (N=3).
# FIGS. 3A-B are a series of graphs showing the effects cell-permeable polypeptides that block CD40-TRAF interactions (T2,3BP and T6BP) on upregulation of VCAM-1 and MCP-1 in HAEC. HAEC were transduced with retroviral vectors encoding wild-type CD40 and incubated with or without CD154. HAEC were pre-treated with either control, TRAF2,3 blocking peptide (T2,3BP), or TRAF6 blocking peptide (T6BP) (200 μM) (N=2).
# FIG. 5 is a graph showing the effects of second generation TRAF2, 3 blocking peptide on VCAM-1 upregulation in HAEC.
# CD40 activates a variety of signaling cascades. […] Next, we determined if preventing the function of the TRAF2,3 binding site affects adhesion molecule upregulation. […]
# [6] = 1 μg intravitreal prior to I/R, 2 d, real time PCR
# [7] = prior to I/R, 2 d, immunohistochemistry
molecule,measurement,setting,value
"CC(C)C[C@@H](NC(=O)[C@@H](C)NC(=O)[C@@H](CCC(N)=O)NC(=O)[C@H](NC(=O)[C@@H](CC(N)=O)NC(=O)[C@@H](Cc1ccc(O)cc1)NC(=O)CNC(=O)[C@@H](CCCNC(=N)N)NC(=O)[C@@H](CCCCN)NC(=O)[C@@H](CCCCN)NC(=O)[C@@H](CCCNC(=N)N)NC(=O)[C@@H](CCCNC(=N)N)NC(=O)[C@@H](CCC(N)=O)NC(=O)[C@@H](CCCNC(=N)N)NC(=O)[C@@H](CCCNC(=N)N)NC(=O)[C@H](N)CCCNC(=N)N)[C@H](C)O)C(=O)N[C@H](C)C(=O)N[C@H](Cc1c[nH]cn1)C(=O)N[C@@H](C(=O)NCC(=O)N[C@H](CCC(=O)O)C(=O)N[C@@H](C(=O)N[C@H](Cc1c[nH]cn1)C(=O)O)C(C)C)[C@H](C)O [ri control peptide, NH2-rrrqrrkkrgy ntqalahtgevh-OH, reference compound]",toxicity (alamarBlue cell viability assay),[1],not toxic
same,toxicity (alamarBlue cell viability assay),[2],not toxic
same,COX-2 mRNA levels in retina,[3]; [6],upregulated
same,ICAM-1 mRNA levels in retina,[3]; [6],marked upregulation
same,KC/CXCL1 mRNA levels in retina,[3]; [6],marked upregulation
same,NOS2 mRNA levels in retina,[3]; [6],upregulated
same,PMN infiltration in the inner retina and vitreous,"[3]; 1 μg intravitreal prior to I/R, 2 d after I/R",developed PMN infiltration
same,loss of ganglion cells,"[3]; 1 μg intravitreal prior to I/R, eyes collected 2 d after I/R",not altered
same,expression of ICAM-1 in retinal endothelial cells,[3]; [7],increased
same,expression of KC/CXCL1 in Müller cells,[3]; [7],increased KC/CXCL1 expression
same,expression of KC/CXCL1 in retinal endothelial cells,[3]; [7],increased
same,expression of NOS2 in Müller cells,[3]; [7],NOS2 upregulation
"AAVALLPAVLLALLAPAPHPKQEPQEIDFPDD [SEQ ID NO: 2, AAVALLPAVLLALLAP APHPKQEPQEIDFPDD]",viability of HAEC,[4],did not affect viability
"AAVALLPAVLLALLAPSNTAAPVQETLHG [SEQ ID NO: 1, AAVALLPAVLLALLAP SNTAAPVQETLHG]",viability of HAEC,[4],did not affect viability
KQEPQEIDFPDD YGRKKRRQRRR [SEQ ID NO: 18],inhibition of upregulation of VCAM-1 triggered by CD154,[5],60%
NTAAHVQETLHG YGRKKRRQRRR [SEQ ID NO: 13],inhibition of upregulation of VCAM-1 triggered by CD154,[5],60%
